From patent publication US20070254847A1, “Pharmaceutical Composition Containing Steroidal Saponins, the Preparation Method and Use Thereof” (priority 2004, published 2007)
Marks after values point to notes of the source that are not given here.

Test system: acute myocardial infarction in rats
Experiment: Effect on acute myocardial infarction in rats (ligation of left anterior descending coronary artery)
Type: in vivo, Wistar rats
Protocol: Test 1 Effect of Pseudoprotogracillin (□) on Acute Myocardial Infarction in Rats:
Pseudoprotogracillin (□) obtained in example 4 was applied in relevant pharmacological tests as follows:
Wistar rats, each weighing 180˜220 g, were randomized into 3 groups, namely control group, pseudoprotogracillin group of high dose and pseudoprotogracillin group of low dose, each of which had 12 rats. The rats in the control group were administered by gastric infusion of distilled water. The other rats in test groups were administered by gastric infusion of the relevant medicinal liquid (prepared with distilled water), according to the high dose (3 mg/kg) or low dose (1.5 mg/kg) listed in following table for each group, respectively. Infusion was performed once a day and continued for one week. 1 hour after last administration, urethane of 1 g/kg was given to the rats for abdominal anesthesia. The animal was fixed on its back and its skin was cut open along the midline of its sternum, along the left edge of which an incision was made for the heart to be squzeezed out quickly. Ligation was immediately made at the root of the left anterior descending branch of its coronary artery before putting the heart back into its thorax, which was then closed by suture and spontaneous breathing was restored. The test was ended 3 hours after ligation and the heart was sliced transversely below the line of ligation. 5 slices were blue-stained with nitrotetrazolium and an multiple color pathological analyzer (MPIAS-500) was applied to measure the areas of normal myocardium and infarct myocardium at a fixed imaging distance and to observe the degree of myocardial infarction.

[1] = High dose 3 mg/kg, gastric infusion once a day for one week, 3 hours after ligation, X ± s
[2] = Low dose 1.5 mg/kg, gastric infusion once a day for one week, 3 hours after ligation, X ± s

Substance: 26-0-β-D-glucopyranosyl-3β, 26 glyco-25 (R)-Δ^5,20(22)-diene-furo-3-O-[α-L-Rhamnop yranosyl(1→2)]-[β-D-glucopyranosyl(1→3)]-β-D-glucopyranoside [pseudoprotogracillin (II)]
- Percentage of infarct area to the heart [1]: 20.74 ± 1.9 %
- Percentage of infarct area to ventricle [1]: 24.5 ± 2.6 %
- Weight of infraction [1]: 0.227 ± 0.032 g
- Area of infraction [2]: 91.3 ± 11.49* mm^2
- Percentage of infarct area to the heart [2]: 25.2 ± 2.3 %
- Percentage of infarct area to ventricle [2]: 28.1 ± 1.9 %
- Weight of infraction [2]: 0.241 ± 0.045 g
- Action on myocardium (in words) (high and low dose vs control group): obvious action to protect myocardium
